Assays:
Axl = target: T1, Axl (Homo sapiens, UniProt P30530); experiment: Phospho-Akt in-cell Western assay (inhibition of Axl activity); type: cell-based
T1 construct: endogenous in cells; host or cells: HeLa cells
T1 sequence (P30530 26-894): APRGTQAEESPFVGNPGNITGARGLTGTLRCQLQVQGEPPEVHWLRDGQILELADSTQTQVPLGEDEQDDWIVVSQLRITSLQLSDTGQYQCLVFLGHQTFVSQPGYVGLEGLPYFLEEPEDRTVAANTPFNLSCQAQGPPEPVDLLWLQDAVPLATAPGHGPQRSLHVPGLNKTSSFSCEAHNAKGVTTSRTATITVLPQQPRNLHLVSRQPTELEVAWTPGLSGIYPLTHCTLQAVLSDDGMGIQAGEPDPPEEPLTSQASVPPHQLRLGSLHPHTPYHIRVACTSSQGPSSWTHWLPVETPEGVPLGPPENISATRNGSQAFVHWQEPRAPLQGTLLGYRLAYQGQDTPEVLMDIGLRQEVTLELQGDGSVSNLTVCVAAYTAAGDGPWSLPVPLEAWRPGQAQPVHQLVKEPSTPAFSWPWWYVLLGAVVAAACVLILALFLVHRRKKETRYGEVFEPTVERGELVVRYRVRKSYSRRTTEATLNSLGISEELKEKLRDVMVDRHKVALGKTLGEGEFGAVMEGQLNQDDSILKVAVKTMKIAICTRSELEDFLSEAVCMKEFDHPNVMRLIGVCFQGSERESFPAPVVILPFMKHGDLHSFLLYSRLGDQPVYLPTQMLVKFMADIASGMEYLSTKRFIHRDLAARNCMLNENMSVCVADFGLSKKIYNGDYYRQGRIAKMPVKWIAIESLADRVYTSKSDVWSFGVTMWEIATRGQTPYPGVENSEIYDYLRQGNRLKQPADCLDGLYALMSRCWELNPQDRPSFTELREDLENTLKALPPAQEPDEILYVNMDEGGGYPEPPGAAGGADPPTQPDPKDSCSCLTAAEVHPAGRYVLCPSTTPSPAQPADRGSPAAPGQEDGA
Summary of the method: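 HeLa cells on poly-L-lysine, starved 24 h in 0.5% FCS DMEM with Axl/Fc 500 ng/mL, pre-treated with compound 1 h at 37° C. Axl stimulated 5 min by anti-Axl/anti-mouse antibody cross-linking. Fixed cells probed with anti-phospho-Akt and HRP secondary, chemiluminescence read.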

[1] = inhibition of Axl activity, Table 1
[2] = Table 5, Hela cells, Axl antibody cross-linking stimulation, phospho-Akt chemiluminescence

Structure (SMILES)	IC50 (Axl; [1]) [µM]	melting point [°C]	IC50 (Axl; [2]) [µM]	IC50 (Axl; Table 4, Hela cells, Axl antibody cross-linking stimulation, phospho-Akt chemiluminescence) [µM]	IC50 (Axl; Table 3, Hela cells, Axl antibody cross-linking stimulation, phospho-Akt chemiluminescence) [µM]
Cc1cccc(C(=O)n2nc(Nc3cccc(OCC(=O)N4CCNCC4)c3)nc2N)c1 [(Ia-20), 5-amino-1-(3-methylphenyl)carbonyl-3-[3-(piperazin-4-ylcarbonylmethoxy)phenyl]amino-1H-1,2,4-triazole]	1 to 10	169 to 171	–	–	–
CC(C)Oc1ccc(C(=O)n2nc(Nc3cccc(OCCN4CCOCC4)c3)nc2N)cc1 [(Ia-22)]	1 to 10	152 to 153.7	–	–	–
CC(C)Oc1ccc(C(=O)n2nc(Nc3cccc(OCCC4OCCO4)c3)nc2N)cc1 [(Ia-24), 5-amino-3-[3-[2-(1,3-dioxolan-2-yl)ethoxy]phenylamino]-1-(4-(iso-propoxy)phenyl)carbonyl-1H-1,2,4-triazole]	1 to 10	144.4 to 145.4	–	–	–
CC(C)Oc1ccc(C(=O)n2nc(Nc3cccc(OCc4ccccc4)c3)nc2N)cc1 [(Ia-25), 5-amino-3-[3-(benzyloxy)phenylamino]-1-(4-(iso-propoxy)phenyl)carbonyl-1H-1,2,4-triazole]	> 20	188.7 to 189.9	–	–	–
Cc1cccc(C(=O)n2nc(Nc3cccc(OCCN4CCOCC4)c3)nc2N)c1 [(Ia-27)]	1 to 10	60 to 63	–	–	–
C=CCN(C)Cc1cc2cc(Nc3nc(N)n(C(=O)c4cccc(C)c4)n3)ccc2o1 [(Ia-28), 5-amino-3-(2-((allyl(methyl)amino)methyl)benzofuran-5-yl)amino-1-(3-methylphenyl)carbonyl-1H-1,2,4-triazole]	–	128 to 131	1 to 10	–	–
CNCc1cc2cc(Nc3nc(N)n(C(=O)c4cccc(C)c4)n3)ccc2o1 [(Ia-29), 5-amino-3-(2-((methylamino)methyl)benzofuran-5-yl)amino-1-(3-methylphenyl)carbonyl-1H-1,2,4-triazole]	–	128 to 131	< 1	–	–
Nc1nc(Nc2ccccc2)n(C(=O)/C=C/c2ccco2)n1 [compound 140, 3-amino-5-phenylamino-1-(trans-2-(furan-2-yl)ethenyl)carbonyl-1H-1,2,4-triazole]	–	190 to 193	–	> 20	–
Nc1nc(Nc2ccccc2)nn1C(=O)/C=C/c1ccco1 [compound 141, 5-amino-3-phenylamino-1-(trans-2-(furan-2-yl)ethenyl)carbonyl-1H-1,2,4-triazole]	–	212 to 216	–	–	1 to 10
